Results on 1 compound are retold here after patent US8877773B2, “Methods for treating chronic obstructive pulmonary disease” (Indiana University Research and Technology Corporation, priority 2009, dated 2014).

Entries after “also recorded” stand apart in the source; their conditions may differ.

Data set [1] relates to panic-prone (1-AG treated) rats. Put plainly: Defensive burying (defensive shock) test after NaLac challenge in panic-prone rats. The format is in vivo, rat. Conditions: 1-AG+NaLac rats. As for the experimental part:
The defensive burying test is a validated test of experimental anxiety and defensive-like behavior in rats. For four consecutive days before defensive burying test (days 3, 4, 5 and 6 post 1-AG onset), rats were acclimated to the testing apparatus by placing them for 10 min in the testing cage (a polycarbonate rat housing cage, 30.5 cm width×30.5 cm height×61 cm length) with 2.5 cm of bedding covering the floor and a small hole centered on a short dimension of the cage 2.5 cm above the bedding to accommodate the deactivated shock probe. The shock probe was 1 cm in diameter and extended 6 cm into the cage. Along the entire length of the exposed probe, 2 un-insulated wires were wrapped in parallel (not touching) so that the rat could not touch the probe without getting a shock. […] The shock intensity was set at 0.7 mA for the entire duration of testing so that the rat received a shock whenever the prod was contacted with its forepaws or snout. […] Behavioral assessments were made using software (ODLog Macropod Software for Windows, version 2.5.2) with different keystrokes coupled to each defensive behavior to accurately measure incidence and duration of each. The repertoire of behavioral reactions during a defensive burying test is well delineated and catalogued in rats. These behaviors include: 1) burying behavior, defined as duration spent pushing, shoveling, flicking and digging sawdust towards and around the prod with rapid movements of the snout and forepaws; 2) Freezing, defined as immobility with the body motionless; 3) probe exploration, defined as time spent on half of cage with probe; 4) rearing, defined as raising the body on the hind limbs in a vertical position; 5) ambulations, defined as number of times rat crossed from side of cage with probe to other; and also 5) grooming, defined as face washing, scratching, tail biting and licking of the body.
On day 1 adult male Sprague-Dawley rats (n=3/group) were anaesthetized and had osmotic minipumps (previously filled with 1-AG) stereotaxically implanted unilaterally into the DMH/PeF. […] Behavioral assessments were made using software (ODLog Macropod Software for Windows, version 2.5.2) with different keystrokes coupled to each defensive behavior to accurately measure incidence and duration of each.

The subject of the next data set is FG-7142 treated rats. Put plainly: FG-7142-induced anxiety: open field, social interaction and elevated plus maze tests. The following applies: Wistar rats. It is filed as in vivo, rat. As for the experimental part:
All experiments were conducted on adult male Wistar rats (250-300 g) purchased from Harlan Laboratories (Indianapolis, Ind. USA) and were housed individually in plastic cages under standard environmental conditions (22° C.; 12/12 light/dark cycle; lights on at 7:00 A.M.) for 7-10 days prior to the surgical manipulations. Food and water were provided ad libitum.
The open-field arena covered an area of 90 cm×90 cm, with 40 cm high walls. The open-field arena was divided into a 6×6 grid of equally-sized squares using black tape (36 total squares) with 4 squares forming the centre; 12 squares forming the middle perimeter; and 20 squares forming the outer perimeter. The test started by placing a rat in the centre. The behavior of each rat in the open-field arena was recorded on video and scored afterwards by an observer blind to the experimental treatment of each rat. Time spent in each region of the open-field was recorded. In addition, locomotor activity was assessed by counting the number of times the rat's entire body (excluding tail) completely crossed into another square.
Following the OFT, the experimental rat was placed in an open field (0.9 m long×0.9 m wide with walls 0.3 m high) with an untreated novel partner rat. A video camera was fixed above the box, and all behavioral tests were videotaped. During the 5 min test the total amount of time the treated rat initiates interaction with the partner rat is recorded (sniffing, grooming etc.) as described previously. Videotaped sessions were scored at a later time by a SDF (blind to treatments) and a decrease in total interaction time was taken as an increase in “anxiety” like behavior.
Following the SI test, rats were place in the center area of the EPM where the two arms intersect. Unlike the SI test, the EPM measures many relevant anxiety related behaviors such as: no. of poke and full entries into and duration spent in closed versus open arm. […] Activity is measured using […] state of the art photobeams (16× beams and 16 Y beams) to provide the highest resolution system available (Automated EPM, Hamilton Kinder Scientific, San diego, CA).

As for `Cc1nc2ccc(NC(=O)Nc3ccnc4cccnc34)cc2o1` [SB334867, N-(2-Methyl-6-benzoxazolyl)-N′-1,5-naphthyridin-4-yl urea], in data set [1] (30 mg/kg i.p.), the “grooming in defensive burying test” value is “No differences were detected”, the “rearing in defensive burying test” value is “No differences were detected” and the “time spent near probe in defensive burying test” value is given as “No differences were detected”. The “NaLac-induced freezing (immobility) in defensive burying test” value in data set [1] (30 mg/kg i.p. 30 min prior, 30 mg/kg) is recorded as “completely blocked; also recorded: blocks”. In data set [1] (30 mg/kg i.p., sedation indicator, 30 mg/kg), the “number of times crossed line dividing halves of test cage (mid-line crossings)” value is reported as “No differences were detected”. The “time in open arms of elevated plus maze” value in the data set on FG-7142 treated rats (FG-7142 7.5 mg/kg ip, with or without SB334867 30 mg/kg ip) was “higher time in open arms”. For the same compound, the “FG-7142-induced anxiety behavior in the social interaction test” value in the data set on FG-7142 treated rats (SB334867 30 mg/kg ip followed by FG-7142 7.5 mg/kg ip) is listed as “blocked”. The “FG-7142 induced anxiety in the open field test” value in the data set on FG-7142 treated rats (SB334867 30 mg/kg ip followed by FG-7142 7.5 mg/kg ip, 15 min after FG-7142) is “appeared to have attenuated”.
